Data reported in US20110130365A1, “Fluorinated Heteroaryls” (priority 2008, published 2011).
pEC50: −log10 of the molar value. Where a name gives a salt, the structure may show the parent alone.

Biological target: T1, Full-length glucokinase (beta cell isoform) (Homo sapiens, UniProt P35557)
T1 construct: Full-length glucokinase (beta cell isoform) was His-tagged at N-terminus; His tag (N); made in house
T1 sequence (P35557 1-465): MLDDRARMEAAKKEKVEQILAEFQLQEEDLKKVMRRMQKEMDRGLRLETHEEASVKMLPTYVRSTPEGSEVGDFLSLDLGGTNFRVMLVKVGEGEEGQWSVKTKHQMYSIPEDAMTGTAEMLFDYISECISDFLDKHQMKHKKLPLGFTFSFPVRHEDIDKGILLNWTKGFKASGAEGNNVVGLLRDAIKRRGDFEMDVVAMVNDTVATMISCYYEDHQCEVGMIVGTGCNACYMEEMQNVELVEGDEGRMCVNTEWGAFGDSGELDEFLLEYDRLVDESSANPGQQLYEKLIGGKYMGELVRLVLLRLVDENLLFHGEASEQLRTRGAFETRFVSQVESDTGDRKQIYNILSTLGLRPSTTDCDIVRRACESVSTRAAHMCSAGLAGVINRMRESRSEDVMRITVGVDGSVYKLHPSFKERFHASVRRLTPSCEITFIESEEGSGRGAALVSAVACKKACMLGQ
Assay: Glucokinase activation assay (PK/LDH-coupled, NADH depletion at 340 nm)
Format: biochemical
Conditions: 5 mM glucose, 2.5 mM ATP, pH 7.1, room temperature, values given as a range where N>1; for Emax: fitted % max activation, read-out: Maximum Activation
Method: Full-length glucokinase (beta cell isoform) was His-tagged at N-terminus and purified by a Ni column followed by size exclusion chromatography. A 320 mL column was packed in house using Pharmacia Superdex75 preparation grade resin. Glucose was obtained from Calbiochem (San Diego, Calif.) and other reagents were purchased from Sigma (St. Louis, Mo.).
All assays were performed in a Corning 384-well plate using Spectramax PLUS spectrophotometer (Molecular Devices, Sunnyvale, Calif.) at room temperature. The final assay volume was 40 μL. The buffer conditions used in this assay were as follows: 50 mM HEPES, 5 mM glucose, 2.5 mM ATP, 3.5 mM MgCl2, 0.7 mM NADH, 2 mM dithiothreitol, 1 Unit/mL PK/LDH, 0.2 mM phosphoenolpyruvate, and 25 mM KCl. The buffer pH was 7.1. The test compound in DMSO solution was added to the buffer and mixed by a plate shaker for 7.5 minutes. The final concentration of DMSO introduced into the assay was 0.25%.
Glucokinase was added to the buffer mixture to initiate the reaction in the presence and absence of compound. The reaction was monitored by absorbance at 340 nm due to the depletion of NADH. The initial reaction velocity was measured by the slope of a linear time course of 0-300 seconds. The percentage of activation was calculated by the following equation:
% Activation=(Va/Vo−1)×100;
wherein each of Va and Vo is defined as the initial reaction velocity in the presence and absence of the tested compound, respectively.
To determine the EC50 (half maximal effective concentration) and % maximum activation, compounds were serially diluted in DMSO by 3-fold. The GK activities were measured as a function of compound concentrations. The data were fitted to the equation below to obtain the EC50 and % max activation values:
Va/Vo=1+(% max activation/100)/(1+EC50/compound concentration)

Emax	pEC50	Compound
121 to 148%	5.68 to 5.82	CCn1ccc(NC(=O)[C@H](CC2CCCC2)n2cc(C(F)(F)F)ccc2=O)n1 [Example 10, (S)-3-cyclopentyl-N-(1-ethyl-1H-pyrazol-3-yl)-2-(2-oxo-5-(trifluoromethyl)pyridin-1(2H)-yl)propanamide]
95 to 106%	5.85 to 5.96	O=C(Nc1ccncn1)[C@H](CC1CCCC1)n1cc(C(F)(F)F)ccc1=O [Example 9, (S)-3-cyclopentyl-2-(2-oxo-5-(trifluoromethyl)pyridin-1(2H)-yl)-N-(pyrimidin-4-yl)propanamide]
84%	6.70	COC(=O)c1ccc(NC(=O)[C@H](CC2CCCC2)n2cc(C(F)(F)F)ccc2=O)nc1 [Example 27, (S)-methyl 6-(3-cyclopentyl-2-(2-oxo-5-(trifluoromethyl)pyridin-1(2H)-yl)propanamido)nicotinate]
77%	5.59	Cc1ccc(NC(=O)[C@H](CC2CCCC2)n2cnc(C(F)(F)F)cc2=O)nc1 [Example 23, (S)-3-cyclopentyl-N-(5-methylpyridin-2-yl)-2-(6-oxo-4-(trifluoromethyl)pyrimidin-1(6H)-yl)propanamide]
108 to 141%	5.89 to 6.15	O=C(Nc1ccn(Cc2ccccc2)n1)[C@H](CC1CCCC1)n1cc(C(F)(F)F)ccc1=O [Example 11, (S)—N-(1-benzyl-1H-pyrazol-3-yl)-3-cyclopentyl-2-(2-oxo-5-(trifluoromethyl)pyridin-1(2H)-yl)propanamide]
57 to 70%	5.34 to 5.54	Cc1ccc(NC(=O)[C@H](CC2CCOCC2)n2cc(C(F)(F)F)ccc2=O)nc1 [Example 38, (S)—N-(5-methylpyridin-2-yl)-2-(2-oxo-5-(trifluoromethyl)pyridin-1(2H)-yl)-3-(tetrahydro-2H-pyran-4-yl)propanamide]
84%	5.54	CCOC(=O)Cc1cnc(NC(=O)[C@H](CC2CCCC2)n2cc(C(F)(F)F)ccc2=O)s1 [Example 25, (S)-ethyl 2-(2-(3-cyclopentyl-2-(2-oxo-5-(trifluoromethyl)pyridin-1(2H)-yl)propanamido)thiazol-5-yl)acetate]
85 to 159%	6.30 to 6.52	O=C(Nc1ccc(CO)cn1)[C@H](CC1CCCC1)n1cc(C(F)(F)F)ccc1=O [Example 33, (S)-3-cyclopentyl-N-(5-(hydroxymethyl)pyridin-2-yl)-2-(2-oxo-5-(trifluoromethyl)pyridin-1(2H)-yl)propanamide]
118 to 152%	5.43 to 5.80	Cc1cnc(NC(=O)[C@H](CC2CCCC2)n2cc(C(F)(F)F)ccc2=O)cn1 [Example 7, (S)-3-cyclopentyl-N-(5-methylpyrazin-2-yl)-2-(2-oxo-5-(trifluoromethyl)pyridin-1(2H)-yl)propanamide]
106%	4.57	Cn1ccc(NC(=O)[C@H](CC2CCCC2)n2cnc(C(F)(F)F)cc2=O)n1 [Example 24, (S)-3-cyclopentyl-N-(1-methyl-1H-pyrazol-3-yl)-2-(6-oxo-4-(trifluoromethyl)pyrimidin-1(6H)-yl)propanamide]
116%	4.95	O=C(O)Cc1cnc(NC(=O)[C@H](CC2CCCC2)n2cc(C(F)(F)F)ccc2=O)s1 [Example 26, (S)-2-(2-(3-cyclopentyl-2-(2-oxo-5-(trifluoromethyl)pyridin-1(2H)-yl)propanamido)thiazol-5-yl)acetic acid mono acetic acid salt]
130%	4.69	Cc1cnc(NC(=O)[C@H](CC2CCCC2)n2cnc(C(F)(F)F)cc2=O)cn1 [Example 22, (S)-3-cyclopentyl-N-(5-methylpyrazin-2-yl)-2-(6-oxo-4-(trifluoromethyl)pyrimidin-1(6H)-yl)propanamide]
58%	5.38	O=C(Nc1ccn(Cc2ccccc2)n1)[C@H](CC1CCCC1)n1ccc(C(F)(F)F)cc1=O [Example 30, (S)—N-(1-benzyl-1H-pyrazol-3-yl)-3-cyclopentyl-2-(2-oxo-4-(trifluoromethyl)pyridin-1(2H)-yl)propanamide]
	< 4.00	Cc1ccc(NC(=O)[C@H](CC2CCOCC2)n2ccc(C(F)(F)F)cc2=O)nc1 [Example 41, (S)—N-(5-methylpyridin-2-yl)-2-(2-oxo-4-(trifluoromethyl)pyridin-1(2H)-yl)-3-(tetrahydro-2H-pyran-4-yl)propanamide]
103%	5.03	O=C(Nc1ccon1)[C@H](CC1CCCC1)n1cc(C(F)(F)F)ccc1=O [Example 18, (S)-3-cyclopentyl-N-(isoxazol-3-yl)-2-(2-oxo-5-(trifluoromethyl)pyridin-1(2H)-yl)propanamide]
58%	5.24	O=C(Nc1ccncn1)[C@H](CC1CCCC1)n1ccc(C(F)(F)F)cc1=O [Example 14, (S)-3-cyclopentyl-2-(2-oxo-4-(trifluoromethyl)pyridin-1(2H)-yl)-N-(pyrimidin-4-yl)propanamide]
110 to 128%	5.49 to 5.77	O=C(Nc1cnccn1)[C@H](CC1CCCC1)n1cc(C(F)(F)F)ccc1=O [Example 8, (S)-3-cyclopentyl-2-(2-oxo-5-(trifluoromethyl)pyridin-1(2H)-yl)-N-(pyrazin-2-yl)propanamide]
